Reference: patent publication US10005792B2, “Aminoindane-, aminotetrahydronaphthalene- and aminobenzocyclobutane-derived PRMT5-inhibitors” (CTXT PTY LTD, priority 2014, dated 2018)

Key:
[1] = biological target: T1, Full-length PRMT5 enzyme co-expressed with MEP50 (Homo sapiens (Human), UniProt O14744); experiment: PRMT5 Biochemical Assay; conditions: 200 nM histone H4 derived peptide substrate, 1 μM S-Adenosyl methionine, 4 hours at 37° C, Transcreener EPIGEN fluorescence polarisation
Method: Compounds of the invention may be tested for in vitro activity in the following assay: A histone H4 derived peptide is used as substrate (amino acid sequence: […]NH2). Full-length PRMT5 enzyme (NCBI Reference sequence NP-006100.2) was co-expressed with Hiss-MEP50 in insect cells and purified via Nickel immobilized metal affinity and gel filtration chromatography (“the enzyme”).
The 6 μL assay reactions are run in Greiner brand black 384-well low volume plates. All reactions contained assay buffer (phosphate buffered saline, 0.01% (v/v) Tween-20, 0.01% (w/v) albumin from chicken egg white, 1 mM dithiothreitol, 200 nM peptide substrate, 1 μM S-Adenosyl methionine, and 15 ng/reaction enzyme, with the enzyme being omitted from negative control reactions. Compounds were added in a volume of 100 nL from dilution series prepared in DMSO, positive and negative control reactions receiving the same volume DMSO without compound. The plates were sealed with adhesive seals and incubated for 4 hours at 37° C. Reaction progress was measured using the Transcreener™ EPIGEN methyltransferase assay (BellBrook Labs, Madison, Wis.) as recommended by the manufacturer. To each reaction 2 μL detection mix were added, containing coupling enzymes, fluorescence polarisation tracer, and AMP antibody. Plates were incubated for 90 min before being read on a PerkinElmer EnVision™ plate reader in fluorescence polarisation mode.

[2] = test system: symmetrical dimethylation of arginine (Di-Methyl Histone H4 Arginine 3) in cell line TE11; experiment: Revised PRMT5 Biomarker Assay; conditions: Homo sapiens, TE-11; TE11 cells, 72 hours incubation, immunofluorescence, corrected for cell number (Hoechst 33342), plate reader based
Method: Compounds of the invention may be tested for potency to inhibit symmetrical dimethylation of arginine in the following assay:
The cell line TE11 was seeded at a density of 6,000 cells per well in 96 well optical quality tissue culture plates in DME medium and 10% foetal bovine serum, and allowed to adhere for 5 hours under standard culture conditions (37 degree Celsius, 5% CO2). Compound dilutions prepared in DMSO were added to the medium, with negative control wells reserved for treatment with DMSO only and positive controls receiving a potent PRMT5 inhibitor compound at 1 μM concentration. After incubation for 72 hours, the cells were fixed with 3.7% formaldehyde in PBS for 30 minutes at room temperature, washed with phosphate buffer saline and blocked with Odyssey blocking buffer (LI-COR, Lincoln, Nebr.). Rabbit anti-Di-Methyl Histone H4 Arginine 3 specific antibody (Epigentek) in Odyssey blocking buffer was added and incubated for 14 hours at 4 degree Celsius. After washing, anti-rabbit secondary antibody labelled with Alexa647 dye (LifeTechnologies) and Hoechst 33342 (1 μg/mL, SigmaAldrich) were added for 1 hour incubation. Plates were washed and read on a PerkinElmer Envision 2103 in fluorescence intensity scanning mode (24 scans across the well area). The methylation level information was corrected for the number of cells as expressed by the Hoechst 33342 stain, converted to percent inhibition relative to controls on the same plate and the data fitted against a four-parameter logistic model to determine the 50% inhibitory concentration (IC50 plate-reader based). Alternatively, the plates were imaged on a PerkinElmer Phenix high content imaging platform. Using a Columbus image analysis pipeline, individual nuclei were located by Hoechst 33342 stain and the methylation level was calculated from the Alexa647-related intensity in the same area. The resulting mean intensity per cell was directly converted to percent inhibition as outlined above (IC50, imager based)).

[3] = biological target: T1, Full-length PRMT5 enzyme co-expressed with MEP50; experiment: Revised PRMT5 Biochemical Assay; conditions: 1 μM histone H4 derived peptide substrate, 1 μM S-Adenosyl methionine, 4 hours at 37 degree Celsius, Transcreener EPIGEN fluorescence polarisation
How it was run: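 Full-length human PRMT5 co-expressed with His-MEP50 in insect cells (15 ng/reaction), 1 μM H4-derived peptide and 1 μM SAM in PBS/0.01% Tween-20/egg albumin/1 mM DTT, 4 h at 37 °C. SAH formation read by Transcreener EPIGEN fluorescence polarisation after 90 min detection. IC50 from four-parameter fit of plate-normalised % inhibition.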

T1 sequence (O14744 whole entry): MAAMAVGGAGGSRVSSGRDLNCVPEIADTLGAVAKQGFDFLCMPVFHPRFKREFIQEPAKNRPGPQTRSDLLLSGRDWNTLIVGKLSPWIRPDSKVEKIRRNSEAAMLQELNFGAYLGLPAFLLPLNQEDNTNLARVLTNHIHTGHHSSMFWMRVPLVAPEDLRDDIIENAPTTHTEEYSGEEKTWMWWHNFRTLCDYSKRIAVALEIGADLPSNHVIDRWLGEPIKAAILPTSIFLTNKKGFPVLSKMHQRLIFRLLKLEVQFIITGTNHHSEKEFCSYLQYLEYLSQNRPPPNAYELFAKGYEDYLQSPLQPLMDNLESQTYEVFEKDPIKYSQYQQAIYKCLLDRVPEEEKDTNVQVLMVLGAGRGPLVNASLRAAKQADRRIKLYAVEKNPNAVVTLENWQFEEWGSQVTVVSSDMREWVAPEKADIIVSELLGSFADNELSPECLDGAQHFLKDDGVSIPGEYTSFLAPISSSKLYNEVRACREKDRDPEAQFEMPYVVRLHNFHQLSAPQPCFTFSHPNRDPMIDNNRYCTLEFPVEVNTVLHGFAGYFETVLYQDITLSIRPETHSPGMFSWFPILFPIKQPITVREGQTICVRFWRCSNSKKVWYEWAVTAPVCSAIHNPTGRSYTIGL
T1 sequence (Q9BQA1 whole entry partner): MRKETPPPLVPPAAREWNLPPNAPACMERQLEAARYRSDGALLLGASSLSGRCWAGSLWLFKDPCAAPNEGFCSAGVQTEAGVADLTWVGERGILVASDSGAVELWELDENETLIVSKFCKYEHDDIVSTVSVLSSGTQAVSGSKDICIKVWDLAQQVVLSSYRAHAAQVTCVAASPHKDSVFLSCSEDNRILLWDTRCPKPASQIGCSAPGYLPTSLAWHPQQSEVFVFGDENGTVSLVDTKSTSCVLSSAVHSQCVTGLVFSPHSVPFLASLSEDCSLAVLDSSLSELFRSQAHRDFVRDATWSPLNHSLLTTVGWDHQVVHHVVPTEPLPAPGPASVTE

SMILES	IC50 [1] [nM]	IC50 [2] [µM]	IC50 [3] [nM]
Cc1nnc(-c2ccc(C(=O)NC[C@@H](O)CNC3Cc4ccccc4C3)cc2)o1 [Compound 17, (S)-N-(3-((2,3-Dihydro-1H-inden-2-yl)amino)-2-hydroxypropyl)-4-(5-methyl-1,3,4-oxadiazol-2-yl)benzamide]	629		
O=C(NCC(O)CNC1Cc2ccccc2C1)c1ccc(C(=O)N2CCC2)cc1 (centres unmarked) [Compound 20, 4-(Azetidine-1-carbonyl)-N-(3-((2,3-dihydro-1H-inden-2-yl)amino)-2-hydroxypropyl)benzamide]	977		
O=C(NCC(O)CNC1Cc2ccccc2C1)c1ccc(C(=O)N2CCCC2)cc1 (centres unmarked) [Compound 21, N-(3-((2,3-Dihydro-1H-inden-2-yl)amino)-2-hydroxypropyl)-4-(pyrrolidine-1-carbonyl)benzamide]	1110		
O=C(NCC(O)CNC1Cc2ccccc2C1)c1cccc(-c2ccccc2)c1 (centres unmarked) [Compound 25, N-(3-((2,3-Dihydro-1H-inden-2-yl)amino)-2-hydroxypropyl)[1,1′-biphenyl]-3-carboxamide]	2220		
O=C(NCC(O)CNC1Cc2ccccc2C1)c1ccccc1-c1ccccc1 (centres unmarked) [Compound 26, N-(3-((2,3-Dihydro-1H-inden-2-yl)amino)-2-hydroxypropyl)-[1,1′-biphenyl]-2-carboxamide]	3870		
O=C(NCC(O)CNC1Cc2ccccc2C1)c1ccc(C(=O)N2CCOCC2)cc1F (centres unmarked) [Compound 27, N-(3-((2,3-Dihydro-1H-inden-2-yl)amino)-2-hydroxypropyl)-2-fluoro-4-(morpholine-4-carbonyl)benzamide]	434		
O=C(NCC(O)CNC1Cc2ccc(Br)cc2C1)c1ccc(Cl)cc1 (centres unmarked) [Compound 28, N-(3-((5-Bromo-2,3-dihydro-1H-inden-2-yl)amino)-2-hydroxypropyl)-4-chlorobenzamide]	69400		
O=C(NCCC(O)CNC1Cc2ccccc2C1)c1ccc(Cl)cc1 (centres unmarked) [Compound 29, 4-Chloro-N-(4-((2,3-dihydro-1H-inden-2-yl)amino)-3-hydroxybutyl)benzamide]	4430		
O=C(NCC(O)CNC1CCc2ccc(F)cc2C1)c1ccc(Cl)cc1 (centres unmarked) [Compound 31, 4-Chloro-N-(3-((7-fluoro-1,2,3,4-tetrahydronaphthalen-2-yl)amino)-2-hydroxypropyl)benzamide]	22600		
O=C(NCC(O)CNC1CCc2cc(F)ccc2C1)c1ccc(Cl)cc1 (centres unmarked) [Compound 32, 4-Chloro-N-(3-((6-fluoro-1,2,3,4-tetrahydronaphthalen-2-yl)amino)-2-hydroxypropyl)benzamide]	18800		
CN(CC(O)CNC(=O)c1ccc(Cl)cc1)C1CCc2ccccc2C1 (centres unmarked) [Compound 33, 4-Chloro-N-(2-hydroxy-3-(methyl(1,2,3,4-tetrahydronaphthalen-2-yl)amino)propyl) benzamide]	24900		
O=C(NCC(O)CNC1Cc2ccccc21)c1ccc(Cl)cc1 (centres unmarked) [Compound 34, N-(3-(Bicyclo[4.2.0]octa-1(6),2,4-trien-7-ylamino)-2-hydroxypropyl)-4-chlorobenzamide]	41100		
O=C(NCC(O)CNC1Cc2ccccc2C1)c1ccc(C(=O)N2CC3CCC(C2)O3)cc1 (centres unmarked) [Compound 39, 4-(8-Oxa-3-azabicyclo[3.2.1]octane-3-carbonyl)-N-(3-((2,3-dihydro-1H-inden-2-yl)amino)-2-hydroxypropyl)benzamide]	120		
CC1(C)CN(C(=O)c2ccc(C(=O)NCC(O)CNC3Cc4ccccc4C3)cc2)CCO1 (centres unmarked) [Compound 41, N-(3-((2,3-Dihydro-1H-inden-2-yl)amino)-2-hydroxypropyl)-4-(2,2-dimethylmorpholine-4-carbonyl)benzamide]	157		
CC(=O)N1CCC(Nc2cncc(C(=O)NCC(O)CNC3Cc4ccccc4C3)c2)CC1 (centres unmarked) [Compound 53, 5-((1-Acetylpiperidin-4-yl)amino)-N-(3-((2,3-dihydro-1H-inden-2-yl)amino)-2-hydroxypropyl)nicotinamide]		0.662	164
CC(=O)N1CCC(Nc2cc(C(=O)NC[C@H](O)CNC3Cc4ccccc4C3)ccn2)CC1 [Compound 55, (R)-2-((1-Acetylpiperidin-4-yl)amino)-N-(3-((2,3-dihydro-1H-inden-2-yl)amino)-2-hydroxypropyl)isonicotinamide]		0.122	450
CC(=O)N1CCC(Nc2cc(C(=O)NC[C@@H](O)CNC3Cc4ccccc4C3)ccn2)CC1 [Compound 56, (S)-2-((1-Acetylpiperidin-4-yl)amino)-N-(3-((2,3-dihydro-1H-inden-2-yl)amino)-2-hydroxypropyl)isonicotinamide]		0.007	98
CC[C@H]1COCCN1C(=O)c1ccc(C(=O)NC[C@@H](O)CNC2Cc3ccccc3C2)cc1 [Compound 70, N-((S)-3-((2,3-dihydro-1H-inden-2-yl)amino)-2-hydroxypropyl)-4-((S)-3-ethylmorpholine-4-carbonyl)benzamide]		0.015	157
CCOc1cc(C(=O)N2CCOCC2)ccc1C(=O)NC[C@@H](O)CNC1Cc2ccccc2C1 [Compound 75, (S)-N-(3-((2,3-dihydro-1H-inden-2-yl)amino)-2-hydroxypropyl)-2-ethoxy-4-(morpholine-4-carbonyl)benzamide]		0.004	64
CCOc1cc(C(=O)N2CCCC2)ccc1C(=O)NC[C@@H](O)CNC1Cc2ccccc2C1 [Compound 76, (S)-N-(3-((2,3-dihydro-1H-inden-2-yl)amino)-2-hydroxypropyl)-2-ethoxy-4-(pyrrolidine-1-carbonyl)benzamide]		0.008	209
CCOc1cc(C(=O)N2C3CCC2COC3)ccc1C(=O)NC[C@@H](O)CNC1Cc2ccccc2C1 [Compound 77, 4-(3-oxa-8-azabicyclo[3.2.1]octane-8-carbonyl)-N-((S)-3-((2,3-dihydro-1H-inden-2-yl)amino)-2-hydroxypropyl)-2-ethoxybenzamide]		0.0005	29
O=C(NC[C@@H](O)CNC1Cc2ccccc2C1)c1ccc(C(=O)N2C3CCC2COC3)cc1 [Compound 103, 4-(3-oxa-8-azabicyclo[3.2.1]octane-8-carbonyl)-N-((S)-3-((2,3-dihydro-1H-inden-2-yl)amino)-2-hydroxypropyl)benzamide]		0.017	120
O=C(NC[C@@H](O)CNC1Cc2ccccc2C1)c1ccc(C(=O)N2CC3CCC(C2)O3)cc1 [Compound 105, 4-(8-oxa-3-azabicyclo[3.2.1]octane-3-carbonyl)-N-((S)-3-((2,3-dihydro-1H-inden-2-yl)amino)-2-hydroxypropyl)benzamide]		0.01	196
CN(C[C@@H](O)CNC1Cc2ccccc2C1)C(=O)c1ccc(C(=O)N2CCOCC2)cc1 [Compound 111, (S)—N-(3-((2,3-Dihydro-1H-inden-2-yl)amino)-2-hydroxypropyl)-N-methyl-4-(morpholine-4-carbonyl)benzamide]		> 2	10400
CCOc1cc(C(=O)N2CCS(=O)(=O)CC2)ccc1C(=O)NC[C@@H](O)CNC1Cc2ccccc2C1 [Compound 114, (S)-N-(3-((2,3-dihydro-1H-inden-2-yl)amino)-2-hydroxypropyl)-4-(1,1-dioxidothiomorpholine-4-carbonyl)-2-ethoxybenzamide]		0.024	66
O=C(NC[C@@H](O)CNC1Cc2ccccc2C1)c1ccc(C(=O)N2C3CCC2COC3)cc1Cl [Compound 121, 4-(3-oxa-8-azabicyclo[3.2.1]octane-8-carbonyl)-2-chloro-N-((S)-3-((2,3-dihydro-1H-inden-2-yl)amino)-2-hydroxypropyl)benzamide]		0.016	130
